According to a melting point compilation (Tetko et al.; mined from patent text by program, amines drawn as free bases though some values may be those of a salt):

Row | SMILES | melting point [°C]
1 | CN(C)CCOc1nccc(-c2c(-c3ccc(F)cc3)ncn2C2CCC(=O)CC2)n1 | 84 to 86
2 | CCn1cc(CC(=O)O)c(OCCCn2cc(C(=O)NCc3ccc(Cl)cc3Cl)c(OC(C)C)n2)n1 | 138 to 139
3 | CS(=O)(=O)c1ccc(-c2nn3c(c2-c2ccc(F)cc2)OCCC3)cc1 | 198 to 200
4 | CCN(CC)C(=O)c1c(OC)ccc2cc(Br)ccc12 | 109 to 110
5 | O=C(NCc1ccc(F)c(F)c1)c1ccnc(N2CCN(CC3CC3)C2=O)c1 | 134 to 136
6 | Cc1nnc2n1-c1sc(CCc3ccc(OC(C)C)cc3)cc1C(c1ccccc1Cl)=NC2 | 121 to 124
7 | COc1cccc(Cc2cnc(N)nc2N)c1 | 221 to 223
8 | CCOC(=O)NC(=S)OCc1ccc(Cl)cc1 | 95
9 | COC(=O)C(C(=O)OC)N(C(N)=O)c1ccc(C=NO)cc1 | 162
10 | CCn1nc(C)cc1C(=O)OC | 130 to 133
11 | Cn1nc(Sc2ccc(C(=O)OCC(C)(C)C)c(Cl)c2)n(C)c1=O | 101
12 | CCCCOc1cc(/C=C/C(=O)O)n(Cc2ccc(C(F)(F)F)cc2Cl)n1 | 172 to 174
13 | CN(C=O)c1cc(F)ccc1C(=O)CS(C)(=O)=O | 94.5 to 95.5
14 | CC12CCC3c4ccc(C(=O)O)cc4CCC3C1CCC2C(=O)c1ccc(C(F)(F)F)cc1 (stereo not given) | 300 to 303
15 | COC(=O)c1cccc(C2=NC(C)(C)Cc3cc(OC)c4c(c32)CC(C)(C)O4)c1 | 137 to 138
16 | COc1ccc(C(=O)O)nc1C | 183
17 | O=C1C(c2ccc(O)cc2)=C(Br)c2cc(O)ccc21 | 245
18 | NC(=O)N1CCCC1COc1cncc(Cl)c1 (stereo not given) | 95
19 | c1ccc(-c2ccc(CN3CCN(c4ccccc4)CC3)s2)cc1 | 88
20 | Clc1ccc(C=Cc2ncon2)cc1 | 134
21 | Cn1c2ccc(Br)cc2c2cc(Br)cc([N+](=O)[O-])c21 | 221
22 | CCN(c1nc(C)cc(C)n1)c1ccc(C(C)C)cc1S(C)(=O)=O | 174 to 175
23 | O=[N+]([O-])c1cnc(Cl)nc1NCCO | 123 to 125
24 | COc1cc(C)c2c(Cl)c(OC)cc([N+](=O)[O-])c2n1 | 199 to 200
25 | CCCCn1c(C(=O)c2cc(C)cc(C=CC#N)c2)c(C(C)C)c(=O)[nH]c1=O | 164 to 165
26 | O=C(NC1=NCCC1)Nc1ccc(Br)cc1 | 221 to 224

Other lines, results leading:

Row | melting point [°C] | SMILES
27 | 141 to 142 | Cc1oc(-c2ccc3ccccc3c2)nc1COc1ccc(CCCC2OCCO2)cc1
28 | 140 | CCCCOc1ccc(C(=O)Nc2ccc3ccc(Cl)nc3n2)cc1
29 | 65 to 75 | Cc1ccc(C(=O)c2c(-c3ccc(OCC(O)CNC(C)C)cc3)oc3ccccc23)cc1 (stereo not given)
30 | 124 to 126 | CSc1ccc(Oc2ccc([N+](=O)[O-])cc2C#N)cc1
31 | 32 to 35 | CCOC(=O)c1nsc(-c2ccccc2)n1
32 | 160 to 162 | CCOC(=O)CCc1ccc(C(C)(C)C)c(NC(=O)CC2c3ccccc3Oc3ccccc32)c1
33 | 203 to 205 | CC(C)(Oc1ccc(OCc2ccc3nn(-c4ccc(C(F)(F)F)cc4)cc3c2)cc1)C(=O)O
34 | 197 to 199 | O=C(O)COc1cccc2c1CCc1sc(S(=O)(=O)C(c3ccc(Cl)cc3)c3ccc(Cl)cc3)nc1-2
35 | 118 to 120 | NC(=O)CCCCCOc1cc(-c2ccccc2)cc(-c2ccccc2)n1
36 | 144 to 146 | COC(=O)c1ccccc1Nc1c(OC)ccc2ccccc12
37 | 252 to 254 | CCOCc1nc2c(N)nc3cc(OCc4cccc(C)c4)ccc3c2n1CC(C)(C)NS(C)(=O)=O
38 | 169 | N#Cc1ccc(NC(=O)c2c(O)ccc3ccccc23)c(OC(F)(F)F)c1
39 | 163 to 164 | COC(=O)c1ccc2cc(-c3ccc(OC)cc3)oc2c1
40 | 88 to 90 | CCOC(=O)COc1cccc(C(=O)Nc2ccccc2Sc2ccc(-c3nnn[nH]3)cc2)c1
